From patent publication US10035760B2, “Inhibitors of human immunodeficiency virus replication” (priority 2013, dated 2018) come the findings set out here.

Where two headings read alike, the source gives them in different places. Bounds are passed on as bounds.

The subject of this experiment is recombinant NL4-3 virus (Renilla luciferase) in MT-2 cells. The experiment is described as follows: HIV cell culture assay (antiviral activity, luciferase readout in infected MT-2 cells). In kind it is cell-based. Particulars: Renilla. As for the experimental part: HIV cell culture assay—MT-2 cells, 293T cells and the proviral DNA clone of NL4-3 virus were obtained from the NIH AIDS Research and Reference Reagent Program. MT-2 cells were propagated in RPMI 1640 media supplemented with 10% heat inactivated fetal bovine serum (FBS), 100 ug/ml penicillin G and up to 100 units/ml streptomycin. The 293T cells were propagated in DMEM media supplemented with 10% heat inactivated FBS, 100 ug/ml penicillin G and 100 ug/ml streptomycin. A recombinant NL4-3 proviral clone, in which a section of the nef gene was replaced with the Renilla luciferase gene, was used to make the reference virus used in these studies. The recombinant virus was prepared through transfection of the recombinant NL4-3 proviral clone into 293T cells using Transit-293 Transfection Reagent from Mirus Bio LLC (Madison, Wis.). Supernatent was harvested after 2-3 days after transfection, and the amount of virus present was titered in MT-2 cells using luciferase enzyme activity as a marker. Luciferase activity was quantitated using the EnduRen Live Cell Substrate from Promega (Madison, Wis.). Antiviral activities of compounds toward the recombinant virus were quantified by measuring luciferase activity in MT-2 cells infected for 4-5 days with the recombinant virus in the presence of serial dilutions of the compound.
The 50% effective concentration (EC50) was calculated by using the exponential form of the median effect equation where (Fa)=1/[1+(ED50/drug conc.)^m](Johnson V A, Byington R T. Infectivity Assay. In Techniques in HIV Research. ed. Aldovini A, Walker B D. 71-76. New York: Stockton Press. 1990).

Where [1] appears, read: NL43, read-out: Activity, antiviral activity class, recombinant NL4-3 Renilla luciferase virus in MT-2 cells.
The mark [2] stands for this setting: NL43, recombinant NL4-3 Renilla luciferase virus in MT-2 cells.

Take `Cc1ccccc1S(=O)(=O)NC(=O)N[C@@H](Cc1ccc(Br)cc1)C(=O)N(C)c1ccc2c(c1)OCO2` [Example 57, (S)—N-(benzo[d][1,3]dioxol-5-yl)-3-(4-bromophenyl)-N-methyl-2-(3-(o-tolylsulfonyl)ureido)propanamide]: the EC50 under setting [1] fell in the range of 1 to 10 µM. Same read-out and setting: as for `C=CCOc1ccc(C[C@H](NC(=O)NS(=O)(=O)c2ccccc2C)C(=O)N(C)c2ccc3c(c2)OCO3)cc1` [Example 58, (S)-3-(4-(allyloxy)phenyl)-N-(benzo[d][1,3]dioxol-5-yl)-N-methyl-2-(3-(o-tolylsulfonyl)ureido)propanamide], the figure is 1 to 10 µM. As for `Cc1ccccc1S(=O)(=O)NC(=O)N[C@@H](Cc1ccc(Cl)c(Cl)c1)C(=O)N(C)c1ccc2c(c1)OCO2` [Example 59, (S)—N-(benzo[d][1,3]dioxol-5-yl)-3-(3,4-dichlorophenyl)-N-methyl-2-(3-(o-tolylsulfonyl)ureido)propanamide], the EC50 was 1 to 10 µM under setting [1] and 1.04 µM under setting [2]. The like results for `Cc1ccccc1S(=O)(=O)NC(=O)N[C@@H](Cc1ccc(F)c(F)c1)C(=O)N(C)c1ccc2c(c1)OCO2` [Example 60, (S)—N-(benzo[d][1,3]dioxol-5-yl)-3-(3,4-difluorophenyl)-N-methyl-2-(3-(o-tolylsulfonyl)ureido)propanamide] were, in that order, 0.1 to 1 µM and 0.23 µM. On the same counts, the results for `Cc1ccccc1S(=O)(=O)NC(=O)N[C@@H](Cc1ccc(C(F)(F)F)cc1)C(=O)N(C)c1ccc2c(c1)OCO2` [Example 61, (S)—N-(benzo[d][1,3]dioxol-5-yl)-N-methyl-2-(3-(o-tolylsulfonyl)ureido)-3-(4-(trifluoromethyl)phenyl)propanamide] are 1 to 10 µM and 6.62 µM. For `Cc1ccccc1S(=O)(=O)NC(=O)N[C@@H](Cc1cccc(C#N)c1)C(=O)N(C)c1ccc2c(c1)OCO2` [Example 62, (S)—N-(benzo[d][1,3]dioxol-5-yl)-3-(3-cyanophenyl)-N-methyl-2-(3-(o-tolylsulfonyl)ureido)propanamide], under setting [1], the EC50 lay in the range of 1 to 10 µM.

On to `Cc1ccccc1S(=O)(=O)NC(=O)N[C@@H](Cc1ccc(C#N)cc1)C(=O)N(C)c1ccc2c(c1)OCO2` [Example 63, (S)—N-(benzo[d][1,3]dioxol-5-yl)-3-(4-cyanophenyl)-N-methyl-2-(3-(o-tolylsulfonyl)ureido)propanamide], for which the EC50 under setting [1] was in the range of 1 to 10 µM. The same measure, in the same setting: as for `COC(=O)c1cccc(C[C@H](NC(=O)NS(=O)(=O)c2ccccc2C)C(=O)N(C)c2ccc3c(c2)OCO3)c1` [Example 64, (S)-methyl 3-(3-(benzo[d][1,3]dioxol-5-yl(methyl)amino)-3-oxo-2-(3-(o-tolylsulfonyl)ureido)propyl)benzoate], the figure is 1 to 10 µM. `Cc1ccccc1S(=O)(=O)NC(=O)N[C@H](C(=O)N(C)c1ccc2c(c1)OCO2)[C@@H](C)c1ccccc1` [Example 65, (2S,3S)—N-(benzo[d][1,3]dioxol-5-yl)-N-methyl-3-phenyl-2-(3-(o-tolylsulfonyl)ureido)butanamide]: the EC50 under setting [1] was in the range of 1 to 10 µM and the EC50 under setting [2] turned out to be 6.83 µM. For `Cc1ccccc1S(=O)(=O)NC(=O)N[C@@H](Cc1ccccc1C(N)=O)C(=O)N(C)c1ccc2c(c1)OCO2` [Example 66, (S)-2-(3-(benzo[d][1,3]dioxol-5-yl(methyl)amino)-3-oxo-2-(3-(o-tolylsulfonyl)ureido)propyl)benzamide], under setting [2], the EC50 was above 100 µM. For the molecule `Cc1ccccc1S(=O)(=O)NC(=O)N[C@@H](Cc1cc(F)cc(F)c1)C(=O)N(C)c1ccc2c(c1)OCO2` [Example 67, (S)—N-(benzo[d][1,3]dioxol-5-yl)-3-(3,5-difluorophenyl)-N-methyl-2-(3-(o-tolylsulfonyl)ureido)propanamide], the EC50 under setting [1] fell in the range of 0.1 to 1 µM. For the molecule `Cc1ccccc1S(=O)(=O)NC(=O)N[C@@H](Cc1ccc(OCc2ccccc2)cc1)C(=O)N(C)c1ccc2c(c1)OCO2` [Example 68, (S)—N-(benzo[d][1,3]dioxol-5-yl)-3-(4-(benzyloxy)phenyl)-N-methyl-2-(3-(o-tolylsulfonyl)ureido)propanamide], the EC50 is, setting by setting: under setting [1], 10 to 100 µM; under setting [2], 16 µM.
